Data taken from patent US12382888B2, “Compositions and methods for modulating immunity in plants” (Boyce Thompson Institute for Plant Research, Inc., priority 2013, dated 2025).
“Also recorded” adds a separate entry of the source. Where two headings read alike, the source gives them in different places.

Experiments:
[1] = system: Phytophthora infestans (US22); format: in vivo; conditions: for resistance to P. infestans: root treatment, at the concentrations tested; for resistance to US22 P. infestans: at the concentration tested
[2] = system: Phytophthora infestans (US22); format: in vivo

Structure (SMILES): CC1O[C@@H](O[C@@H](C)CCCCCCCCC(=O)O)C(O)C[C@H]1O (stereo in doubt) [ascr #18, (10R)-(3′R,5′R-dihydroxy-6′S-methyl-(2H)-tetrahydropyran-2-yloxy)-undecanoic Acid]
- P. infestans resistance in tomato ([1]; tomato (M82), root pretreatment with 0.01 or 1 μM ascaroside): +
- resistance to P. infestans ([1]; tomato cv. M82): enhanced resistance
- protection against US22 P. infestans (sporangia number, lesion size) ([1]; tomato cv. M82, roots pretreated 48 hours, 1 nM and 10 nM): strong protection
- resistance to virulent US22 P. infestans ([1]; tomato cv. M82 and Rio Grande, root immersion 0.01 μM 48 hours before inoculation): enhances resistance
- resistance to virulent US22 P. infestans (lesion size 5 dpi, sporangia 6 dpi) ([1]; tomato cv. Rio Grande, root immersion 0.01 μM 48 hours before): enhanced resistance
- enhancement of resistance ([1]; tomato, 100 nM): reduced or lost
- ascr #18 concentrations of maximal protection/resistance ([1]; tomato, P. infestans US22): 1 to 10 nM
- concentration that enhanced resistance (as little as) ([1]; tomato, P. infestans US22): 10 pM
- protection against P. infestans ([1]; tomato, higher concentrations): decreased
- protection against virulent P. infestans ([2]; potato cv. Desiré, Eva or Yukon Gold, 10 nM by root immersion or foliar spray 48 hours prior): provided protection; also recorded: protects against P. infestans-induced late blight
- resistance to virulent US22 P. infestans (lesion size 5 dpi) ([2]; potato cv. Désirée, root immersion 0.01 μM 48 hours before): enhanced resistance

Structure (SMILES): CC1O[C@@H](O[C@H](C)CCCC/C=C/C(=O)O)C(O)C[C@H]1O (stereo partly shown) [ascr #3]
- resistance of M82 against P. infestans ([1]; 0.01 μM): did not have a significant effect
- P. infestans resistance in tomato ([1]; in vivo): −
- resistance to P. infestans ([1]; tomato cv. M82): neither ascr #3 nor oscr #9 affected resistance

Structure (SMILES): C[C@H](CCC(=O)O)O[C@@H]1O[C@@H](C)[C@H](O)C[C@H]1O [ascr #9]
- P. infestans resistance in tomato ([1]; in vivo): +
- resistance to US22 P. infestans (lesion size, sporangia number) ([1]; tomato cv. M82, root immersion 1 μM 48 hours before, 7 dpi): enhances resistance
- resistance to P. infestans ([1]; tomato cv. M82): enhanced resistance

Structure (SMILES): CC1O[C@@H](O[C@H](C)CCCCCCC(=O)O)C(O)C[C@H]1O (stereo partly shown) [ascr #10]
- resistance to US22 P. infestans ([1]; tomato cv. M82): not

Structure (SMILES): CC1O[C@@H](O[C@H](C)CCCCCCCCC(=O)NCCO)C(O)C[C@H]1O (stereo partly shown) [easc #18]
- resistance to virulent US22 P. infestans (lesion size 5 dpi, sporangia 6 dpi) ([1]; in vivo): enhanced resistance

Structure (SMILES): CC1O[C@@H](OCCCCC(=O)O)C(O)C[C@H]1O (stereo partly shown) [oscr #9]
- P. infestans resistance in tomato ([1]; in vivo): −
- resistance to US22 P. infestans ([1]; tomato cv. M82): not
- resistance to P. infestans ([1]; tomato cv. M82): neither ascr #3 nor oscr #9 affected resistance
